Reference: patent publication US7192958B2, “Sodium channel blockers” (Parion Sciences, Inc., priority 2002, dated 2007)
Each block holds one compound with its values, some of them ahead of it.

Biological target: T1, airway epithelial sodium currents (epithelial Na+ channel, ENaC) in canine bronchial epithelia (Canis lupus familiaris, UniProt A0A8I3MKE6+A0A8I3Q679+Q95165)
T1 construct: endogenous in cells; host or cells: primary canine bronchial epithelial cells cultured at air-liquid interface, mounted in Ussing chambers
T1 sequence (A0A8I3Q679 1-649): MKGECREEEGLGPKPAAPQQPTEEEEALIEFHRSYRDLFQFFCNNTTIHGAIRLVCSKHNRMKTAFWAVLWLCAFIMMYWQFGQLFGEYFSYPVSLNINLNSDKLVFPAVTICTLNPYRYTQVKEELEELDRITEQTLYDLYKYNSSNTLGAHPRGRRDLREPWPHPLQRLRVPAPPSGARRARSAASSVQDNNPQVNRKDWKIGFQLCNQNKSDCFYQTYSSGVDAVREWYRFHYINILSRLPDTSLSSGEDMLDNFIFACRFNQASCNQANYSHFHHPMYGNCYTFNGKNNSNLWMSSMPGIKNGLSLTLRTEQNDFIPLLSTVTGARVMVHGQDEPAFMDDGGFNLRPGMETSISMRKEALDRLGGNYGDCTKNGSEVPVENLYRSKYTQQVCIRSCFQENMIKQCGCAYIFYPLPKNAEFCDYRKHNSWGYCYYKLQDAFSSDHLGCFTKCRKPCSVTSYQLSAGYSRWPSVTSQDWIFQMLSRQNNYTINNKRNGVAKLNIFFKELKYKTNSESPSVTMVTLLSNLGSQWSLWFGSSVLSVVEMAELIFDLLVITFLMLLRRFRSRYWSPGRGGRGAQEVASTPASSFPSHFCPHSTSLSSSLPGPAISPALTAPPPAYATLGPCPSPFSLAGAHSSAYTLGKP
T1 sequence (Q95165 1-641): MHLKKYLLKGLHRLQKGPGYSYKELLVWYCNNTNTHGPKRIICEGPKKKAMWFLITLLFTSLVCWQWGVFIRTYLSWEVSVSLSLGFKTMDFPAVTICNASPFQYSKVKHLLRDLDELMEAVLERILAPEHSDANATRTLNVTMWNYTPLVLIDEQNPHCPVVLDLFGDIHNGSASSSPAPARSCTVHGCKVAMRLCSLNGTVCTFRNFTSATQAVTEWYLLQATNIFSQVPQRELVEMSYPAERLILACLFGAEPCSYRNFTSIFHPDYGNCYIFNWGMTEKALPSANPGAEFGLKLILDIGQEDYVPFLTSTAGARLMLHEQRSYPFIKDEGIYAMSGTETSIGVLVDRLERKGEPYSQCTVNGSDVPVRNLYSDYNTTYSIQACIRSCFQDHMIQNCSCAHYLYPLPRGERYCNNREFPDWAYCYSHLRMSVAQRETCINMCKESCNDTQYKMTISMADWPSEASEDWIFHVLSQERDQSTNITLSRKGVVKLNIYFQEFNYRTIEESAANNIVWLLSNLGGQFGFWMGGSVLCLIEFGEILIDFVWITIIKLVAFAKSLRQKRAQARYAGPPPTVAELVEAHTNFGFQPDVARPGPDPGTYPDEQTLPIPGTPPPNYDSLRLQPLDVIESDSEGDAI
T1 sequence (A0A8I3MKE6 1-646): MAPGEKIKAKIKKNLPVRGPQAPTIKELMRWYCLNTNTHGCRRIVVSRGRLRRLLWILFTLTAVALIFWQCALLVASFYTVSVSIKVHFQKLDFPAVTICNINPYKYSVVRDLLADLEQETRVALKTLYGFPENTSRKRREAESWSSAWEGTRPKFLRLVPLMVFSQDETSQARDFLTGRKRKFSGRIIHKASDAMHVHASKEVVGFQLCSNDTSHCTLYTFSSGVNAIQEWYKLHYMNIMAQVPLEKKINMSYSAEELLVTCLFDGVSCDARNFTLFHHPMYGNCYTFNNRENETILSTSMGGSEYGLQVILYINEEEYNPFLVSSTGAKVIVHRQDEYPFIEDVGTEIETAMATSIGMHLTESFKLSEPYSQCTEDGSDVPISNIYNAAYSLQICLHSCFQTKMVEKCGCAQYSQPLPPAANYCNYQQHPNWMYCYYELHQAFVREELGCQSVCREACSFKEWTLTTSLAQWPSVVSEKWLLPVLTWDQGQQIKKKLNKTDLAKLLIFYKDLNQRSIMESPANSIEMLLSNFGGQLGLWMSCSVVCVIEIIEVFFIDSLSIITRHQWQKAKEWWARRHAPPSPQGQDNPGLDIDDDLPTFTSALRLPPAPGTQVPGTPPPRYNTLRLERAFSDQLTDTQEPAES
Assay: Sodium channel blocking activity: potency in canine bronchial epithelia, short circuit current (ISC) in Ussing chambers
Type: cell-based
Settings: relative to amiloride as positive control
Method: One assay used to assess mechanism of action and/or potency of the compounds of the present invention involves the determination of lumenal drug inhibition of airway epithelial sodium currents measured under short circuit current (ISC) using airway epithelial monolayers mounted in Ussing chambers. Cells obtained from freshly excised human, dog, sheep or rodent airways are seeded onto porous 0.4 micron Snapwell™ Inserts (CoStar), cultured at air-liquid interface (ALI) conditions in hormonally defined media, and assayed for sodium transport activity (ISC) while bathed in Krebs Bicarbonate Ringer (KBR) in Using chambers. All test drug additions are to the lumenal bath with half-log dose addition protocols (from 1×10^−11 M to 3×10^−5M), and the cumulative change in ISC (inhibition) recorded. All drugs are prepared in dimethyl sulfoxide as stock solutions at a concentration of […] and stored at −20° C. Eight preparations are typically run in parallel; two preparations per run incorporate amiloride and/or benzamil as positive controls. After the maximal concentration ([…]) is administered, the lumenal bath is exchanged three times with fresh drug-free KBR solution, and the resultant ISCmeasured after each wash for approximately 5 minutes in duration. Reversibility is defined as the percent return to the baseline value for sodium current after the third wash. All data from the voltage clamps are collected via a computer interface and analyzed off-line.
Dose-effect relationships for all compounds are considered and analyzed by the Prism 3.0 program. IC50 values, maximal effective concentrations, and reversibility are calculated and compared to amiloride and benzamil as positive controls.
Amiloride was also tested in this assay as a positive control. The results for the compounds of the present invention are reported as fold-enhancement values relative to amiloride.

Compound: Cl.N=C(NCCCCc1ccc(O)cc1O)NC(=O)c1nc(Cl)c(N)nc1N [drawing 26 Position 2,4 R H, 4-(2,4-Dihydroxyphenyl)butylamidino-3,5-diamino-6-chloropyrazinecarboxamide hydrochloride]
Fold Enhancement Over Amiloride: 14.9 fold

Compound: Cl.N=C(NCCCCc1ccc(O)cc1)NC(=O)c1nc(Cl)c(N)nc1N [drawing 27 n 4 Position of R 4 R OH, 4-(4-hydroxyphenyl)butylamidino-3,5-diamino-6-chloropyrazinecarboxamide hydrochloride]
Fold Enhancement Over Amiloride: 50.3 fold

Compound: Br.N=C(NCCCOc1ccc(O)cc1)NC(=O)c1nc(Cl)c(N)nc1N [drawing 29 a CH2 b O R H, 4-(4-Hydroxyphenyl)-4-oxabutylamidino-3,5-diamino-6-chloropyrazinecarboxamide hydrobromide]
Fold Enhancement Over Amiloride: 16.1 fold

Continued, values first:

Fold Enhancement Over Amiloride: 15.1 fold
Compound: Cl.N=C(NCCCCc1ccc(O)c(O)c1)NC(=O)c1nc(Cl)c(N)nc1N [drawing 26 Position 3,4 R H, 4-(3,4-Dihydroxyphenyl)butylamidino-3,5-diamino-6-chloropyrazinecarboxamide hydrochloride]

Fold Enhancement Over Amiloride: 5.2 fold
Compound: Cl.N=C(NCCCc1ccc(O)cc1)NC(=O)c1nc(Cl)c(N)nc1N [drawing 27 n 3 Position of R 4 R OH, 3-(4-Hydroxyphenyl)propylamidino-3,5-diamino-6-chloropyrazinecarboxamide hydrochloride]

Fold Enhancement Over Amiloride: 14 fold
Compound: Cl.N=C(NCCCCCc1ccc(O)cc1)NC(=O)c1nc(Cl)c(N)nc1N [drawing 27 n 5 Position of R 4 R OH, 5-(4-Hydroxyphenyl)pentylamidino-3,5-diamino-6-chloropyrazinecarboxamide hydrochloride]
